From patent EP3095787A1, “[…] ACTIVE COMPOUNDS AS DAG-LIPASE INHIBITORS” (Universiteit Leiden, priority 2015, dated 2016)

Columns and labels:
FAAH = molecular target: T1, FAAH (Mus musculus, UniProt O08914); assay: Gel based competitive ABPP selectivity assay with TAMRA-FP in mouse brain proteome (FAAH band); type: biochemical; conditions: 10 µM inhibitor; TAMRA-FP 500 nM; mouse brain proteome; vehicle set to 100%
T1 construct: For gel based ABPP experiments mouse brain proteome (2.0 mg/mL, 20 µL) was preincubated; from tissue; host or cells: mouse brain proteome
T1 sequence (O08914 1-579): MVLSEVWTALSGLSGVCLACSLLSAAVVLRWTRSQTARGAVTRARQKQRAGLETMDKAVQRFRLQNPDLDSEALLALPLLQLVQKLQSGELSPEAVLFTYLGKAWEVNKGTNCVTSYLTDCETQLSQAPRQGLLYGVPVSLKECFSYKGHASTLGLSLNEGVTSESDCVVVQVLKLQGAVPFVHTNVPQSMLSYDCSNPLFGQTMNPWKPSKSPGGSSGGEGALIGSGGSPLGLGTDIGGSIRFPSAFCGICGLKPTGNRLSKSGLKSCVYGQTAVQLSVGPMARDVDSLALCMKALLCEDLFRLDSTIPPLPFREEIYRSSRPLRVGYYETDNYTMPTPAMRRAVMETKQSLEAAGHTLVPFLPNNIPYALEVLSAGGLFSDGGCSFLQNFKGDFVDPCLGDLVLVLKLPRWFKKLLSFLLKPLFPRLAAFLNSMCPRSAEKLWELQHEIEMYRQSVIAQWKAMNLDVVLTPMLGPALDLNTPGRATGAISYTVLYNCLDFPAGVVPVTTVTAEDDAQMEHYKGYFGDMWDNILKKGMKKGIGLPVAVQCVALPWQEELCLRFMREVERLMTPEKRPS
Method: (§1) For gel based ABPP experiments mouse brain proteome (2.0 mg/mL, 20 µL) was preincubated for 30 min with vehicle (DMSO) or compound to be tested in 0.5 µL DMSO at rt. And subsequently treated with 500 nM (final concentration) TAMRA-FP (TAMRA-FP was bought at Thermo Fischer) for 15 minutes at rt. The reactions were quenched with 10 µL standard 3 x SDS page sample buffer. The samples were directly loaded and resolved on SDS page gel (10 % acrylamide). The gels were scanned with a ChemiDoc MP sytem (Biorad, Cy 3 settings, 605/50 filter) and analyzed using Image Lab 4.1.
The percentage effect on FAAH was determined by measuring the integrated optical intensity of the band corresponding to FAAH (∼ 63 kD for mouse) using Image lab software. This activity was corrected for the total protein loading per lane as determined by coomassie staining and imaging with a ChemiDoc™ MP sytem (Biorad) followed by determination of the integrated optical intensity per lane by using Image Lab 4.1 software. The intensity of the protein bands from the samples treated with vehicle was set to 100%. […] N/A means less than 50% probe displacement at 10 µM inhibitor concentration.

hDAGL-α [1] = molecular target: T2, hDAGL-α (Homo sapiens, UniProt Q9Y4D2); assay: Biochemical hDAGL-α activity assay (PNP-butyrate hydrolysis, 96 well plate); set-up: expressed in transfected cells; host or cells: HEK293T (transient), membrane fraction; conditions: PNP-butyrate 0.3 mM, membranes of HEK293T cells transfected with hDAGL-α; for IC50: read-out: DAGL-α Activity assay pIC50 (converted)
T2 sequence (Q9Y4D2 1-1042): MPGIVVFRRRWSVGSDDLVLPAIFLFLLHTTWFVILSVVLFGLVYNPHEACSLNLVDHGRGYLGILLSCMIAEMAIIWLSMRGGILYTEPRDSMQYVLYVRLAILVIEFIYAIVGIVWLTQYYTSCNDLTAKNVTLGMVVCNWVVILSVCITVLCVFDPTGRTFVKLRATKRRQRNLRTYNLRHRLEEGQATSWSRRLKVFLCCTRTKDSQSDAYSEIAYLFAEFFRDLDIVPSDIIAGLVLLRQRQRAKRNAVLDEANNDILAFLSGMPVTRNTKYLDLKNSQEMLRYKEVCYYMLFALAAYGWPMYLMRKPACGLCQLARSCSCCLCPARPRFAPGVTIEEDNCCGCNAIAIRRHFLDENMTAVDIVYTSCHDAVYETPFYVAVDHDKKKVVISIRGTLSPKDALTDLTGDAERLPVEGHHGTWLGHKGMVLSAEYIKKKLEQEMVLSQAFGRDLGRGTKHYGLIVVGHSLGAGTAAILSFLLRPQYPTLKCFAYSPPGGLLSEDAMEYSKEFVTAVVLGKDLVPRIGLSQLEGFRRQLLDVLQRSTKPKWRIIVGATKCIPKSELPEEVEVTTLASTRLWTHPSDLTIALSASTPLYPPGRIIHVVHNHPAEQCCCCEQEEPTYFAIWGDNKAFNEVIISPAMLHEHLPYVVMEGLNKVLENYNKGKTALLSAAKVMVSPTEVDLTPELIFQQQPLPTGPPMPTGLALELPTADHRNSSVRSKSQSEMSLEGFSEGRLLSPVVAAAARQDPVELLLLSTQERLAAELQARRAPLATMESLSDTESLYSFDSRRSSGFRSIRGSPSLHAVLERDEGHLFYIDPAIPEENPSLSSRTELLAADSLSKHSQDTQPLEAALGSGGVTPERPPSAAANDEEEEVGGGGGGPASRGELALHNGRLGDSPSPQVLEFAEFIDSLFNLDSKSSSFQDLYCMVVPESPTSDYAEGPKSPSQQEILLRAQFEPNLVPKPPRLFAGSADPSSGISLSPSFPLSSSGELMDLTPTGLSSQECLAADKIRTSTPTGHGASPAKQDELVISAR
Method: The biochemical hDAGL-α activity assay is based on the hydrolysis of para-nitrophenylbutyrate (PNP-butyrate) by membrane preparations from HEK293T cells transiently transfected with hDAGL-α. 200 µL reactions were performed in flat bottom Greiner 96-wells plates in a 50 mM pH 7.2 Hepes buffer. Membrane protein fractions from HEK293T cells transiently transfected with hDAGL-α (0.05 µg/µL final concentration) were used as hDAGL-α source. Compounds to be tested were introduced in 5 µL DMSO. The mixtures were incubated for 30 minutes before 5.0 µL 12 mM PNP-butyrate (final concentration 0.3 mM) in DMSO was added (final DMSO concentration 5.0%). Kinetics were followed immediately after addition of PNP-butyrate on a plate reader (TECAN GENios® microplate reader), by measuring the OD420 every 60 seconds, for 20 minutes at 37°C. The slope of the linear region from 5-15 minutes was determined, and all experiments were performed at N = 2, n = 2 for experimental measurements and N = 2, n = 4 for controls.
Data analysis: Z'-factor of each plate was determined for the validation of each experiment, using the following formula Z' = 1-3(σpc + σnc)/(µpc - µnc). The slope from 5-15 minutes of the positive control (pc: hDAGL-α, DMSO), and the negative control (nc: Mock, DMSO) was used. Plates were accepted for further analysis when Z' > 0.6. Kinetic measurements were corrected for the average absorption of the negative control (mock, DMSO). The slope of the linear region from 5-15 minutes was determined. The average, standard deviation (SD) and standard error of mean (SEM) were calculated and normalized to the corrected positive control. Data was exported to Graphpad Prism 5.0 for the calculation of the pIC50 using a nonlinear dose-response analysis.

serine hydrolases = assay: Comparative and competitive gel ABPP selectivity in mouse brain membrane proteome (TAMRA-FP and MB064); type: biochemical; conditions: 1 µM; including ABHD6 and ABHD12
Method: as §1
To investigate the selectivity of compound 25 in the mouse brain proteome comparative and competitive ABPP was used with a broad-spectrum FP-based probe (TAMRA-FP) and the tailored DAGL-α ABP MB064. As a reference the widely used β-lactone-based DAGL-inhibitors THL and OMDM-188, two broad-spectrum covalent and irreversible serine hydrolase inhibitors, were firstly tested.

hDAGL-α [2] = molecular target: T2, hDAGL-α; assay: Mode of action (reversibility) experiment: size exclusion chromatography, then MB064 labeling; type: biochemical; set-up: expressed in transfected cells; conditions: pre-incubation at IC80 concentration; remaining activity visualized with MB064; n=3
Method: To determine the mode of action (reversible versus irreversible) of the inventive compounds, an experiment in which human DAGL-α membranes were pre-incubated at the IC80 concentration of compound 25 or the irreversible DAGL inhibitor KT-109 was performed.

| Compound | IC50 (hDAGL-α [1]) [nM] | FAAH ABPP (10 µm) % Eff. (FAAH) | also measured |
| --- | --- | --- | --- |
| Cc1ccc(-c2cnc3nc(C(=O)CCc4cccc(Oc5ccccc5)c4)oc3c2)cc1 [Compound 27, 3-(3-Phenoxyphenyl)-1-(6-(p-tolyl)oxazolo[4,5-b]pyridin-2-yl)propan-1-one] | 3.72 | N/A (N/A means less than 50% probe displacement at 10 µM inhibitor concentration) |  |
| CCCCCCCCCCC[C@@H](C[C@@H]1OC(=O)[C@H]1CCCCCC)OC(=O)[C@@H](NC=O)[C@@H](C)CC [OMDM-188, reference compound] |  |  | number of serine hydrolases whose labeling is blocked (serine hydrolases): at least 4 |
| O=C(N1CCCCC1Cc1ccccc1)n1cc(-c2ccc(-c3ccccc3)cc2)nn1 (stereo not shown) [KT-109, reference compound] |  |  | recovery of DAGL-α activity after size exclusion chromatography (hDAGL-α [2]): No recovery of DAGL-α activity |
| 1-(4-fluoro-6-(2-fluorophenyl)benzo[d]oxazol-2-yl)-6-phenylhexan-1-one [Compound 31] |  | N/A (N/A means less than 50% probe displacement at 10 µM inhibitor concentration) | DAGL-α Activity assay pIC50 (hDAGL-α [1]): 8.6 |
| Cc1ccc(-c2cnc3nc(C(=O)CCc4ccccc4Oc4ccccc4)oc3c2)cc1 [Compound 26, 3-(2-phenoxyphenyl)-1-(6-(p-tolyl)oxazolo[4,5-b]pyridin-2-yl)propan-1-one] | 8.32 | N/A (N/A means less than 50% probe displacement at 10 µM inhibitor concentration) |  |
| Cc1ccc(-c2cnc3nc(C(=O)CCc4ccc(Oc5ccccc5)cc4)oc3c2)cc1 [Compound 28, 3-(4-phenoxyphenyl)-1-(6-(p-tolyl)oxazolo[4,5-b]pyridin-2-yl)propan-1-one] | 5.13 | N/A (N/A means less than 50% probe displacement at 10 µM inhibitor concentration) |  |
| CCCCCCCCCCC[C@@H](C[C@@H]1OC(=O)[C@H]1CCCCCC)OC(=O)[C@H](CC(C)C)NC=O [THL, Tetrahydrolipstatin, reference compound] |  |  | number of serine hydrolases whose labeling is blocked (serine hydrolases): at least 4 |

More lines, main results first:

| IC50 (hDAGL-α [1]) [nM] | Compound | FAAH ABPP (10 µm) % Eff. (FAAH) | also measured |
| --- | --- | --- | --- |
| 1.41 | Cc1ccc(-c2cc(F)c3nc(C(=O)CCCCCc4ccccc4)oc3c2)cc1 [Compound 32, 1-(4-fluoro-6-(p-tolyl)benzo[d]oxazol-2-yl)-6-phenylhexan-1-one] | N/A (N/A means less than 50% probe displacement at 10 µM inhibitor concentration) |  |
| 0.851 | Cc1ccc(-c2cnc3nc(C(=O)CCc4ccc(Oc5ccc(C(F)(F)F)cn5)cc4)oc3c2)cc1 [Compound 29, 1-(6-(p-Tolyl)oxazolo[4,5-b]pyridin-2-yl)-3-(4-((5-(trifluoromethyl)pyridin-2-yl)oxy)phenyl)propan-1-one] | N/A (N/A means less than 50% probe displacement at 10 µM inhibitor concentration) |  |
| 1.32 | Cc1ccccc1-c1cc(F)c2nc(C(=O)CCCCCc3ccccc3)oc2c1 [Compound 33, 1-(4-fluoro-6-(o-tolyl)benzo[d]oxazol-2-yl)-6-phenylhexan-1-one] | N/A (N/A means less than 50% probe displacement at 10 µM inhibitor concentration) |  |
| 5.01 | O=C(CCCCCc1ccccc1)c1nc2c(F)cc(-c3ccc(F)cc3)cc2o1 [Compound 30, 1-(4-fluoro-6-(4-fluorophenyl)benzo[d]oxazol-2-yl)-6-phenylhexan-1-one] | N/A (N/A means less than 50% probe displacement at 10 µM inhibitor concentration) |  |
